Assay results: PMC8102066 (eLife, 2021)
“And” between values parts separate entries of the source, which are not always exact repeats. Equal entries are not always repeated. Where two headings read alike, the source gives them in different places.

Columns and labels:
[1] = target: T1, mGluR2-C121A-I779A (Rattus norvegicus, UniProt P31421, C121A/I779A); assay: SiMPull subunit counting in the presence of ligands; settings: SNAP-mGluR2-C121A-I779A in presence of the ligand; single replicates per experiment day
T1 construct: expressed in transfected cells; host or cells: HEK 293 T (detergent lysate, pulled down by anti-HA antibody)

[2] = target: T2, mGluR2-C121A-3xTM4-I779A (Rattus norvegicus, UniProt P31421, A677S/A681F/A685G/C121A/I779A); assay: as above; settings: SNAP-mGluR2-C121A-3xTM4-I779A in presence of the ligand; single replicates per experiment day
T2 construct: expressed in transfected cells; host or cells: HEK 293 T (detergent lysate, pulled down by anti-HA antibody)

[3] = target: mGluR3-S686A (Rattus norvegicus, UniProt P31422, S686A); assay: Calcium imaging in HEK 293 T cells
[4] = target: mGluR3-G694A (Rattus norvegicus, UniProt P31422, G694A); assay: Calcium imaging in HEK 293 T cells; settings: for Calcium response amplitude: mGluR3-G694A
[5] = target: T3, mGluR2-3xTM4 (Rattus norvegicus, UniProt P31421, A677S/A681F/A685G); assay: Inter-LBD FRET (N-terminal SNAP-tags), live cells; settings: mGluR2-3xTM4, inter-LBD FRET
[6] = target: mGluR3 (Rattus norvegicus, UniProt P31422); assay: Inter-LBD FRET (N-terminal SNAP-tags), live cells; settings: for FRET response amplitude: mGluR3, inter-LBD FRET
[7] = target: mGluR3-3xTM4 (Rattus norvegicus, UniProt P31422, F690A/G694A/S686A); assay: Inter-LBD FRET (N-terminal SNAP-tags), live cells; settings: for FRET response amplitude: mGluR3-3xTM4, inter-LBD FRET
[8] = target: mGluR2 (Rattus norvegicus, UniProt P31421, INS660ASEIGTGFPFDPHYVEVLGERMHYVDVGPRDGTPVLFLHGNPTSSYVWRNIIPHVAPTHRCIAPDLIGMGKSDKPDLGYFFDDHVRFMDAFIEALGLEEVVLVIHDWGSALGFHWAKRNPERVKGIAFMEFIRPIPTWDEWPEFARETFQAFRTTDVGRKLIIDQNVFIEGTLPMGVVRPLTEVEMDHYREPFLNPVDREPLWRFPNELPIAGEPANIVALVEEYMDWLHQSPVPKLLFWGTPGVLIPPAEAARLAKSLPNCKAVDIGPGLNLLQEDNPDLIGSEIARWLSTLEISGLE); assay: Inter-TMD FRET sensor (HaloTag in ICL2), live cells; settings: mGluR2, inter-TMD FRET
[9] = target: mGluR3-C127A (Rattus norvegicus, UniProt P31422, C127A); assay: SiMPull subunit counting in the presence of ligands
[10] = target: mGluR3-C127A-3xTM4 (Rattus norvegicus, UniProt P31422, C127A/F690A/G694A/S686A); assay: as above; settings: SNAP-mGluR3-C127A-3xTM4 in presence of the ligand; single replicates per experiment day
[11] = target: T3, mGluR2-3xTM4; assay: GIRK channel whole cell patch clamp in HEK 293 T cells
[12] = target: T3, mGluR2-3xTM4; assay: Calcium imaging (G protein chimera, GCaMP6f) in HEK 293 T cells; settings: normalized to 1 mM glutamate, replicates
[13] = target: mGluR3-I788A (Rattus norvegicus, UniProt P31422, I788A); assay: Calcium imaging in HEK 293 T cells; format: cell-based; set-up: we performed calcium imaging experiments with mutations in the full-length mGluR2 background; expressed in transfected cells; host or cells: HEK 293 T; Calcium response amplitude: scale not given here; settings: for Calcium response amplitude: mGluR3-I788A
Experimental: Approximately 30 ROIs were analyzed per movie.

[14] = read-out: Glutamate EC50 (micromolar), calcium imaging, Fig 3F source data
[15] = read-out: Glutamate EC50, calcium imaging, normalized to saturating (1 mM) glutamate
[16] = read-out: Glutamate EC50, LBD FRET, normalized to saturating (1 mM) glutamate, unit inferred

T2 sequence (P31421 19-872 C121A/A677S/A681F/A685G/I779A): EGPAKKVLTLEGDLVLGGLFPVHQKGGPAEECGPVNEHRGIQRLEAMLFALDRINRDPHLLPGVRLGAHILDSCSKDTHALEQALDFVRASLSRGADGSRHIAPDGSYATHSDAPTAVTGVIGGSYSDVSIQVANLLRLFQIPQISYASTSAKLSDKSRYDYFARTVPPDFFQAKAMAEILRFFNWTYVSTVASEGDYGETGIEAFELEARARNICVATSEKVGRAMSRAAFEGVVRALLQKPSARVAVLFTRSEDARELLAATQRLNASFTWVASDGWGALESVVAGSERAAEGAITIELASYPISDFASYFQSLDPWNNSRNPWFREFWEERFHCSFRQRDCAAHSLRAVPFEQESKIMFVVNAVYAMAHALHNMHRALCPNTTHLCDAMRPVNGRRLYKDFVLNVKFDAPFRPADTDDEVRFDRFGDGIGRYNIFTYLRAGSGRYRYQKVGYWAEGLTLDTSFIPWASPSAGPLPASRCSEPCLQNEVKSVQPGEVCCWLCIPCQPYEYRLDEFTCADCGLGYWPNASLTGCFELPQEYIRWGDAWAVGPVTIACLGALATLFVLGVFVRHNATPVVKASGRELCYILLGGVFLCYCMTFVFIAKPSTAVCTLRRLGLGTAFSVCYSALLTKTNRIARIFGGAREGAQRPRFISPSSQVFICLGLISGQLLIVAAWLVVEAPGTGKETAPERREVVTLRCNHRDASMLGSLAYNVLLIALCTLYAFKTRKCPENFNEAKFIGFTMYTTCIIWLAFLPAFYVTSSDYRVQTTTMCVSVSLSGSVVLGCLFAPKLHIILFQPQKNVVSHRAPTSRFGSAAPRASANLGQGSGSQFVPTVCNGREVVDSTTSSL
mGluR3-G694A, sequence (P31422 23-879 G694A): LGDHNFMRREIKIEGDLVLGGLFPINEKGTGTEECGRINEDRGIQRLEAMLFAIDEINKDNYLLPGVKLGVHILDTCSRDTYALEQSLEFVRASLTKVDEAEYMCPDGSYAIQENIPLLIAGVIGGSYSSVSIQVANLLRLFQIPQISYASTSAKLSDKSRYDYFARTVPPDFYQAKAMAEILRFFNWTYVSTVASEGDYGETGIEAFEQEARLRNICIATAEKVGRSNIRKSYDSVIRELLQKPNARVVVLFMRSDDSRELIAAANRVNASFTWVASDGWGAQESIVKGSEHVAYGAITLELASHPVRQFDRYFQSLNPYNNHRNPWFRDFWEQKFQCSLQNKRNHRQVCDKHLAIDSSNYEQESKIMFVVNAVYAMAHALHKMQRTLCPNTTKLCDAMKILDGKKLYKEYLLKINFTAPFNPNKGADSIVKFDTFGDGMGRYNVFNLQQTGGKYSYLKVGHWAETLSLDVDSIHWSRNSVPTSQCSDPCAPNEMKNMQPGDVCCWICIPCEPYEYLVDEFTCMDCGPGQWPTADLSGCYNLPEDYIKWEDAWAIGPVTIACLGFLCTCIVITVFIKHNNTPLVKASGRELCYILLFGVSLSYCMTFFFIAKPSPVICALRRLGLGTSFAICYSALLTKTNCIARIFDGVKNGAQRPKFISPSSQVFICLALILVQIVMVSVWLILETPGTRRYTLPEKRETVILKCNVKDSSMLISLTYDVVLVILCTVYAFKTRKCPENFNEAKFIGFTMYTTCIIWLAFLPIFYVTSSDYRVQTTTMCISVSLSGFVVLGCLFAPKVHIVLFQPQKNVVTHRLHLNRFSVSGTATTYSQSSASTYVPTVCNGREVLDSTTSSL
mGluR2, sequence (P31421 with tags, fused parts or gaps with the stated changes): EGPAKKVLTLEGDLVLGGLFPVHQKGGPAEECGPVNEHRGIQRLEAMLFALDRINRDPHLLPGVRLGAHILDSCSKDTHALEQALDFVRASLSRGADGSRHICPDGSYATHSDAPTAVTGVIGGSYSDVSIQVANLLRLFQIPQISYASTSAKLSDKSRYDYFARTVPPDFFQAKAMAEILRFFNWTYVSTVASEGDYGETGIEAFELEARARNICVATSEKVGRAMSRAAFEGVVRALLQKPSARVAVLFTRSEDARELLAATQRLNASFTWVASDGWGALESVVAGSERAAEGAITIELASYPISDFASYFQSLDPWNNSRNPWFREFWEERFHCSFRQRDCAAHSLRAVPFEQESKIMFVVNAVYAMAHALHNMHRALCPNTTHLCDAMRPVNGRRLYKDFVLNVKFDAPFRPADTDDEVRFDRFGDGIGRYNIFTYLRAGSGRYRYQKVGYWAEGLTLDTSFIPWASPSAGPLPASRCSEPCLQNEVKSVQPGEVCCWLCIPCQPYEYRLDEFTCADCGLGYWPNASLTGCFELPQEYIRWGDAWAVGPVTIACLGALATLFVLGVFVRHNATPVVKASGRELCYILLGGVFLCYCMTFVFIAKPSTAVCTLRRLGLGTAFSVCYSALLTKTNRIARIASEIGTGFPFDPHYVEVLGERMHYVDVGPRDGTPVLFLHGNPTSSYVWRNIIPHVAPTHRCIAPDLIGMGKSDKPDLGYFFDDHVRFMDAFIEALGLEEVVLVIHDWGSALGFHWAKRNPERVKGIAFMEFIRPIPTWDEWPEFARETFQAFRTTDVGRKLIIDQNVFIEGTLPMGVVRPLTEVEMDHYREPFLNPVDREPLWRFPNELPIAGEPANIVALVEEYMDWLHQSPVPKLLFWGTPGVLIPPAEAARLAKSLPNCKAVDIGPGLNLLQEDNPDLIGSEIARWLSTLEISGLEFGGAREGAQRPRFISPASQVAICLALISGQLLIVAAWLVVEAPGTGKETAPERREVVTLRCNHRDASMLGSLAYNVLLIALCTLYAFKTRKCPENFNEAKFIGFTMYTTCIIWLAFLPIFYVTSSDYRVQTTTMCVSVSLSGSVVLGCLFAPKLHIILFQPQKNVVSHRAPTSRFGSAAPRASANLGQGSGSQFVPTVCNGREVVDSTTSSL
mGluR3-3xTM4, sequence (P31422 23-879 S686A/F690A/G694A): as the sequence (P31422 23-879 G694A) above, with S664A, F668A counted along it
mGluR3, sequence (P31422 23-879): as the sequence (P31422 23-879 G694A) above, with A672G counted along it
mGluR3-C127A, sequence (P31422 23-879 C127A): as the sequence (P31422 23-879 G694A) above, with C105A, A672G counted along it
T3 sequence (P31421 19-872 A677S/A681F/A685G): as the sequence (P31421 19-872 C121A/A677S/A681F/A685G/I779A) above, with A103C, A761I counted along it
mGluR3-I788A, sequence (P31422 23-879 I788A): as the sequence (P31422 23-879 G694A) above, with A672G, I766A counted along it
mGluR3-C127A-3xTM4, sequence (P31422 23-879 C127A/S686A/F690A/G694A): as the sequence (P31422 23-879 G694A) above, with C105A, S664A, F668A counted along it
T1 sequence (P31421 19-872 C121A/I779A): as the sequence (P31421 19-872 C121A/A677S/A681F/A685G/I779A) above, with S659A, F663A, G667A counted along it
mGluR3-S686A, sequence (P31422 23-879 S686A): as the sequence (P31422 23-879 G694A) above, with S664A, A672G counted along it

**Q.** For `N[C@@H](CCC(=O)O)C(=O)O` [glutamate], which “% Dimerization” value [1] is on record?
**A.** 54.00% and 69.67% and 69.76% and 51.05% and 59.66% and 56.67%

**Q.** And the “% Dimerization” value [2]?
**A.** 44.05% and 34.78% and 55.93% and 49.13% and 47.14% and 45.12%

**Q.** And the EC50 [3, 14]?
**A.** 5.11 µM

**Q.** And the EC50 [3, 15]?
**A.** 5.12 ± 0.06 µM

**Q.** And the Calcium response amplitude ([4]; Glutamate 10 nM)?
**A.** 0.00

**Q.** And the Calcium response amplitude ([4]; Glutamate 5 uM)?
**A.** 0.50 and 0.59 and 0.67

**Q.** And the Calcium response amplitude ([4]; Glutamate 10 uM)?
**A.** 0.98

**Q.** What about the Calcium response amplitude ([4]; Glutamate 100 uM) of the same compound?
**A.** 1.00

**Q.** And the Calcium response amplitude ([4]; Glutamate 1 mM)?
**A.** 1.00

**Q.** What about the EC50 [4, 14] of the same compound?
**A.** 4.65 µM

**Q.** And the EC50 [4, 15]?
**A.** 4.66 ± 0.03 µM

**Q.** And the FRET response amplitude ([5]; Glutamate 10 nM)?
**A.** 0.00

**Q.** And the FRET response amplitude ([5]; Glutamate 100 nM)?
**A.** 0.00

**Q.** And the FRET response amplitude ([5]; Glutamate 3 uM)?
**A.** 0.10

**Q.** And the FRET response amplitude ([5]; Glutamate 10 uM)?
**A.** 0.49 and 0.37

**Q.** And the FRET response amplitude ([5]; Glutamate 100 uM)?
**A.** 1.00 and 0.97

**Q.** And the FRET response amplitude ([5]; Glutamate 1 mM)?
**A.** 1.00

**Q.** And the FRET response amplitude ([6]; Glutamate 1 nM)?
**A.** 0.00

**Q.** What about the FRET response amplitude ([6]; Glutamate 10 nM) of the same compound?
**A.** 0.00

**Q.** What about the FRET response amplitude ([6]; Glutamate 1 uM) of the same compound?
**A.** 0.66 and 0.53

**Q.** What about the FRET response amplitude ([6]; Glutamate 3 uM) of the same compound?
**A.** 1.00 and 0.63

**Q.** And the FRET response amplitude ([6]; Glutamate 10 uM)?
**A.** 1.00 and 0.86

**Q.** And the FRET response amplitude ([6]; Glutamate 100 uM)?
**A.** 1.00

**Q.** And the EC50 [6, 16]?
**A.** 0.64 ± 0.1 µM

**Q.** What about the FRET response amplitude ([7]; Glutamate 1 nM) of the same compound?
**A.** 0.00

**Q.** What about the FRET response amplitude ([7]; Glutamate 10 nM) of the same compound?
**A.** 0.00

**Q.** And the FRET response amplitude ([7]; Glutamate 1 uM)?
**A.** 0.63 and 0.58

**Q.** What about the FRET response amplitude ([7]; Glutamate 3 uM) of the same compound?
**A.** 0.78 and 0.90

**Q.** What about the FRET response amplitude ([7]; Glutamate 10 uM) of the same compound?
**A.** 0.99 and 0.96 and 1.05

**Q.** What about the FRET response amplitude ([7]; Glutamate 1 mM) of the same compound?
**A.** 1.00

**Q.** What about the EC50 [7, 16] of the same compound?
**A.** 0.67 ± 0.05 µM

**Q.** What about the FRET response amplitude ([8]; Glutamate 10 nM) of the same compound?
**A.** 0.00

**Q.** What about the FRET response amplitude ([8]; Glutamate 100 nM) of the same compound?
**A.** 0.00

**Q.** And the FRET response amplitude ([8]; Glutamate 100 uM)?
**A.** 0.97 and 0.96 and 0.95 and 0.92 and 1.04 and 0.99 and 1.01

**Q.** What about the FRET response amplitude ([8]; Glutamate 1 mM) of the same compound?
**A.** 1.00

**Q.** What about the “% Dimerization” value ([9]; SNAP-mGluR3-C127A in presence of the ligand, single replicates per experiment day) of the same compound?
**A.** 83.23% and 72.86% and 68.26% and 70.70% and 67.67% and 71.63%

**Q.** What about the “effect of ligand on dimerization (SiMPull)” value ([9]; saturating concentration) of the same compound?
**A.** increased dimerization

**Q.** What about the “% Dimerization” value [10] of the same compound?
**A.** 75.71% and 66.43% and 55.31% and 68.06% and 59.35% and 70.85%

**Q.** And the GIRK current amplitude ([11]; Glutamate 10 nM)?
**A.** 0.000

**Q.** What about the GIRK current amplitude ([11]; Glutamate 100 uM) of the same compound?
**A.** 0.955 and 1.148 and 1.101

**Q.** And the GIRK current amplitude ([11]; Glutamate 1 mM)?
**A.** 1.000

**Q.** What about the Calcium response amplitude ([12]; Glutamate 1 nM) of the same compound?
**A.** 0.00

**Q.** And the Calcium response amplitude ([12]; Glutamate 10 nM)?
**A.** 0.00

**Q.** And the Calcium response amplitude ([12]; Glutamate 100 nM)?
**A.** 0.26 and 0.30 and 0.14

**Q.** What about the Calcium response amplitude ([12]; Glutamate 300 nM) of the same compound?
**A.** 0.49 and 0.41

**Q.** And the Calcium response amplitude ([12]; Glutamate 1 uM)?
**A.** 0.54 and 0.70 and 0.62 and 0.63 and 0.75

**Q.** And the Calcium response amplitude ([12]; Glutamate 3 uM)?
**A.** 0.98 and 0.89 and 0.90 and 0.80 and 0.78 and 1.01

**Q.** And the Calcium response amplitude ([12]; Glutamate 10 uM)?
**A.** 0.95 and 1.00 and 0.99

**Q.** What about the Calcium response amplitude ([12]; Glutamate 100 uM) of the same compound?
**A.** 0.96 and 0.99 and 1.00 (2×)

**Q.** And the Calcium response amplitude ([12]; Glutamate 1 mM)?
**A.** 1.00

**Q.** What about the Calcium response amplitude ([13]; Glutamate 10 nM) of the same compound?
**A.** 0.00

**Q.** What about the Calcium response amplitude ([13]; Glutamate 1 uM) of the same compound?
**A.** 0.60 and 0.66 and 0.55

**Q.** And the Calcium response amplitude ([13]; Glutamate 10 uM)?
**A.** 0.97 and 1.00 and 0.86

**Q.** What about the Calcium response amplitude ([13]; Glutamate 100 uM) of the same compound?
**A.** 1.00

**Q.** What about the Calcium response amplitude ([13]; Glutamate 1 mM) of the same compound?
**A.** 1.00

**Q.** And the EC50 ([13]; read-out: Glutamate EC50, calcium imaging, normalized to saturating (1 mM) glutamate, unit inferred)?
**A.** 10.43 ± 0.1 µM
